Common to all, as to format: cell-based
Test [1] has as its target T1, human glucagon receptor (GCGR) (Homo sapiens, UniProt P47871).
T1 construct: expressed in transfected cells
Description: cAMP assay, human GCGR cells. Conditions: cAMP assay. The essentials: (§1)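 Peptide-stimulated cAMP measured by two-step HTRF after a 30 min room-temperature incubation with receptor-expressing cells (hGLP-1R, hGIPR at 1×10^5 cells/ml; hGCGR at 2×10^5 cells/ml). Duplicate dilutions; EC50 from 4-parameter logistic fit of % Delta F.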

Test [2] addresses T2, human glucose-dependent insulinotropic peptide receptor (GIPR) (Homo sapiens, UniProt P48546).
T2 construct: expressed in transfected cells
T2 sequence (P48546 22-466): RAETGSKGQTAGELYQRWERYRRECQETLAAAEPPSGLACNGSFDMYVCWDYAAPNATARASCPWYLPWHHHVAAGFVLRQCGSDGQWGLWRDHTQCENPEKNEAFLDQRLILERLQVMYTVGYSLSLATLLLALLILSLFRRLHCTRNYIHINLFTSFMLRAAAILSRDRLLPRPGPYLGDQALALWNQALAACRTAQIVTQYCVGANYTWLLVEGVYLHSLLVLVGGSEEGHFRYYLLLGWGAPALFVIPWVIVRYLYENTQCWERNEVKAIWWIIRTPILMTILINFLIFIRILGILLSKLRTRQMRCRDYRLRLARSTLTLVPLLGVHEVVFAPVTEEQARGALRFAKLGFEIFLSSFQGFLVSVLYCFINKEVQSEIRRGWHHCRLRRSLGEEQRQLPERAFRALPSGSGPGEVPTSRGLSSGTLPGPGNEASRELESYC
Description: cAMP assay, human GIPR cells. Conditions: cAMP assay. In outline:
as §1
In general terms: Changes in cAMP serve as a functional read-out for many G protein-coupled receptors.

In test [3] the target is T3, human GLP-1 receptor (GLP-1R) (Homo sapiens, UniProt P43220).
T3 construct: expressed in transfected cells
T3 sequence (P43220 24-463): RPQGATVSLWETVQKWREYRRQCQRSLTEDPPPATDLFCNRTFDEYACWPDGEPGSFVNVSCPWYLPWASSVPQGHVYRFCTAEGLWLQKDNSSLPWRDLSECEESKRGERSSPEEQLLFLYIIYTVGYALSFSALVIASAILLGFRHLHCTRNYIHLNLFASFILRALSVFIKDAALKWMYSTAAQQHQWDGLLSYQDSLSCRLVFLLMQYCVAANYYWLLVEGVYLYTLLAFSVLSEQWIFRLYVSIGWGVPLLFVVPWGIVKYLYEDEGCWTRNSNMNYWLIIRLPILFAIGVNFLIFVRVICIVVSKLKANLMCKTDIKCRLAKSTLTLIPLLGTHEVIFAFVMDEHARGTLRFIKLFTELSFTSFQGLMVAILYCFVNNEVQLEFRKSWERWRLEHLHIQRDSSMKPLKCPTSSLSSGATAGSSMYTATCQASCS
Description: cAMP assay, human GLP-1R cells. The procedure: Sample dilutions are made in duplicate.
A frozen cryo-vial of cells expressing the receptor of interest is thawed rapidly in a water-bath, transferred to pre-warmed assay buffer and spun at 240×g for 5 minutes. Cells are re-suspended in assay buffer at a batch-dependent optimized concentration (e.g. hGCGR cells at 2×10^5 cells/ml, hGLP-1R and hGIPR cells at 1×10^5 cells/ml).
To this, 5 μL cell suspension is added and the plates incubated at room temperature for 30 minutes.
cAMP levels are measured using a commercially available cAMP dynamic 2 HTRF kit (Cisbio, Cat #62AM4PEJ), following the two step protocol as per manufacturer's recommendations. In brief; anti-cAMP cryptate (donor fluorophore) and cAMP-d2 (acceptor fluorophore) are made up separately by diluting each 1/20 in conjugate & lysis buffer provided in the kit. 5 μL anti-cAMP cryptate is added to wells of the assay plate, and 5 μL cAMP-d2 is added to wells except non-specific binding (NSB) wells, to which conjugate and lysis buffer are added. […] EC50 values of the synthetic peptides determined in cAMP assays are then determined.
Data is transformed to % Delta F as described in the manufacturer's guidelines and analyzed by 4-parameter logistic fit to determine EC50 values. […] To compare the balance of activities at the GLP-1R and GCGR between different peptides and across different conditions, these can be correlated, where the EC50's are related to those of comparator peptides.

Setting [4] is: first determination (n1), read-out: Primary assay EC50 Gluc-R (n1).
The mark [5] stands for this setting: second determination (n2), read-out: Primary assay EC50 Gluc-R (n2).
Setting [6] is: first determination (n1), read-out: Primary assay EC50 GIP-R (n1).
Where [7] appears, read: second determination (n2), read-out: Primary assay EC50 GIP-R (n2).
Where [8] appears, read: cAMP assay, first determination (n1), read-out: Primary assay EC50 GLP-1R n1.
[9] abbreviates: cAMP assay, second determination (n2), read-out: Primary assay EC50 GLP-1R n2.
Setting [10] is: mean of n1 and n2, read-out: Mean pM GLP-1R.

Read-outs that look alike come from different tables or passages of the source. Square brackets hold non-standard residues; d marks the D form. Peptide text beside a SMILES is read from it. αMeF = C[C@](N)(Cc1ccccc1)C(=O)O; αMeK = C[C@](N)(CCCCN)C(=O)O; αMeS = C[C@](N)(CO)C(=O)O; Aib = CC(C)(N)C(=O)O

T1 sequence (P47871 26-477): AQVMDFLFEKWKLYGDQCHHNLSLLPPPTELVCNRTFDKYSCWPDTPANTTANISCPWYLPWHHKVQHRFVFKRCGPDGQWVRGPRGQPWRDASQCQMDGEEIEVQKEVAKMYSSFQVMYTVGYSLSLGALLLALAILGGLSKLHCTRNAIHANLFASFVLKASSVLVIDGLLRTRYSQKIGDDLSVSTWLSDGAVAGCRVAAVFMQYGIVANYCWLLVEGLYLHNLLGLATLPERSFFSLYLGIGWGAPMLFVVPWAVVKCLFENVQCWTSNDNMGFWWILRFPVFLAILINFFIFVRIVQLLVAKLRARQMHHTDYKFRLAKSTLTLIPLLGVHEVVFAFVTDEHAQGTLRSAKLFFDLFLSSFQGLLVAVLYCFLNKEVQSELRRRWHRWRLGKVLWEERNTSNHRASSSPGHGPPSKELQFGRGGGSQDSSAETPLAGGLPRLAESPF

As to `CC[C@H](C)[C@H](NC(=O)[C@H](CO)NC(=O)[C@](C)(Cc1ccccc1)NC(=O)[C@H](CC(=O)O)NC(=O)[C@H](CO)NC(=O)[C@@H](NC(=O)[C@](C)(Cc1ccccc1)NC(=O)[C@H](CO)NC(=O)CNC(=O)[C@H](CCC(=O)O)NC(=O)C(C)(C)NC(=O)[C@@H](N)Cc1ccc(O)cc1)[C@@H](C)CC)C(=O)N[C@@H](C)C(=O)N[C@@H](CCSC)C(=O)N[C@@H](CC(=O)O)C(=O)N[C@@H](CCCCN)C(=O)N[C@H](C(=O)N[C@@H](Cc1c[nH]cn1)C(=O)N[C@@H](CCC(N)=O)C(=O)N[C@@H](CCC(N)=O)C(=O)N[C@@H](CC(=O)O)C(=O)N[C@@](C)(Cc1ccccc1)C(=O)N[C@H](C(=O)N[C@@H](CC(N)=O)C(=O)N[C@@](C)(Cc1ccccc1)C(=O)N[C@@H](CC(C)C)C(=O)N[C@@H](CC(C)C)C(=O)N[C@@H](C)C(=O)N[C@@H](CCC(N)=O)C(=O)N[C@@H](CCCCN)C(N)=O)C(C)C)[C@@H](C)CC` [compound 15] (H-Y[Aib]EGS[αMeF]ISD[αMeF]SIAMDKIHQQD[αMeF]VN[αMeF]LLAQK-NH2; N-terminus assumed), the EC50 in test [1] (setting [4]) came out at 120 nM; in test [1] (setting [5]), 120 nM; in test [2] (setting [6]), 0.16 nM; in test [2] (setting [7]) it was 0.079 nM; in test [3] (setting [8]) it was 120000 pM; in test [3] (setting [9]) it was 120000 pM. Further, the EC50 in test [3] (setting [10]) is 119000 pM.
With `CC[C@H](C)[C@H](NC(=O)[C@](C)(Cc1ccccc1)NC(=O)[C@H](CCC(=O)O)NC(=O)[C@](C)(CCCCN)NC(=O)[C@H](C)NC(=O)[C@H](C)NC(=O)[C@H](CCC(=O)O)NC(=O)CNC(=O)[C@H](CCC(=O)O)NC(=O)[C@H](CC(C)C)NC(=O)[C@](C)(Cc1ccccc1)NC(=O)[C@H](CO)NC(=O)[C@H](CO)NC(=O)[C@@H](NC(=O)[C@H](CC(=O)O)NC(=O)[C@](C)(CO)NC(=O)[C@@H](NC(=O)[C@](C)(Cc1ccccc1)NC(=O)[C@H](CO)NC(=O)CNC(=O)[C@H](CCC(=O)O)NC(=O)C(C)(C)NC(=O)[C@@H](N)Cc1c[nH]cn1)[C@@H](C)O)C(C)C)C(=O)N[C@@H](C)C(=O)N[C@@](C)(Cc1ccccc1)C(=O)N[C@H](C(=O)N[C@H](C(=O)N[C@@](C)(CCCCN)C(=O)NCC(=O)NCC(N)=O)C(C)C)C(C)C` [compound 16], the EC50 in test [1] (setting [4]) is at least 100 nM; in test [1] (setting [5]), at least 100 nM; in test [2] (setting [6]), at least 100 nM; in test [2] (setting [7]), at least 100 nM; in test [3] (setting [8]), 11000 pM; in test [3] (setting [9]), 9400 pM. The EC50 in test [3] (setting [10]) was 10100 pM.
With `CC[C@H](C)[C@H](NC(=O)[C@](C)(Cc1ccccc1)NC(=O)[C@H](CCC(=O)O)NC(=O)[C@](C)(CCCCN)NC(=O)[C@H](C)NC(=O)[C@H](C)NC(=O)[C@H](CCC(=O)O)NC(=O)CNC(=O)[C@H](CCC(=O)O)NC(=O)[C@H](CC(C)C)NC(=O)[C@](C)(Cc1ccccc1)NC(=O)[C@H](CO)NC(=O)[C@](C)(CO)NC(=O)[C@@H](NC(=O)[C@H](CC(=O)O)NC(=O)[C@](C)(CO)NC(=O)[C@@H](NC(=O)[C@](C)(Cc1ccccc1)NC(=O)[C@H](CO)NC(=O)CNC(=O)[C@H](CCC(=O)O)NC(=O)C(C)(C)NC(=O)[C@@H](N)Cc1c[nH]cn1)[C@@H](C)O)C(C)C)C(=O)N[C@@H](C)C(=O)N[C@@](C)(Cc1ccccc1)C(=O)N[C@H](C(=O)N[C@H](C(=O)N[C@@](C)(CCCCN)C(=O)NCC(=O)NCC(N)=O)C(C)C)C(C)C` [compound 18], the EC50 is at least 100 nM in test [1] (setting [4]); at least 100 nM in test [1] (setting [5]); at least 100 nM in test [2] (setting [6]); at least 100 nM in test [2] (setting [7]); 4100 pM in test [3] (setting [8]); 5800 pM in test [3] (setting [9]). The EC50 in test [3] (setting [10]) came out at 4940 pM.
Turning to `CC[C@H](C)[C@H](NC(=O)[C@H](Cc1ccccc1)NC(=O)[C@H](CCC(=O)O)NC(=O)[C@H](CCCCN)NC(=O)[C@H](C)NC(=O)[C@H](C)NC(=O)[C@H](CCC(N)=O)NC(=O)CNC(=O)[C@H](CCC(=O)O)NC(=O)[C@H](CC(C)C)NC(=O)[C@H](Cc1ccc(O)cc1)NC(=O)[C@H](CO)NC(=O)[C@H](CO)NC(=O)[C@@H](NC(=O)[C@H](CC(=O)O)NC(=O)C(C)(C)NC(=O)[C@@H](NC(=O)[C@H](Cc1ccccc1)NC(=O)[C@@H](NC(=O)CNC(=O)[C@H](CCC(=O)O)NC(=O)C(C)(C)NC(=O)[C@@H](N)Cc1c[nH]cn1)[C@@H](C)O)[C@@H](C)O)C(C)C)C(=O)N[C@@H](C)C(=O)N[C@@H](Cc1c[nH]c2ccccc12)C(=O)N[C@@H](CC(C)C)C(=O)N[C@H](C(=O)N[C@@H](CCCCN)C(=O)NCC(=O)N[C@@H](CCCNC(=N)N)C(N)=O)C(C)C` [compound 20] (H-H[Aib]EGTFT[Aib]DVSSYLEGQAAKEFIAWLVKGR-NH2), the EC50 is at least 290 nM in test [1] (setting [4]); at least 290 nM in test [1] (setting [5]); at least 290 nM in test [2] (setting [6]); at least 290 nM in test [2] (setting [7]); 15000 pM in test [3] (setting [8]); 12000 pM in test [3] (setting [9]). Besides, the EC50 in test [3] (setting [10]) stood at 13500 pM.
As for `CC[C@H](C)[C@H](NC(=O)[C@H](Cc1ccccc1)NC(=O)[C@H](CCC(=O)O)NC(=O)[C@H](CCCCN)NC(=O)[C@H](C)NC(=O)[C@H](C)NC(=O)[C@H](CCC(N)=O)NC(=O)CNC(=O)[C@H](CCC(=O)O)NC(=O)[C@H](CC(C)C)NC(=O)[C@H](Cc1ccc(O)cc1)NC(=O)[C@H](CO)NC(=O)C(C)(C)NC(=O)[C@@H](NC(=O)[C@H](CC(=O)O)NC(=O)C(C)(C)NC(=O)[C@@H](NC(=O)[C@H](Cc1ccccc1)NC(=O)[C@@H](NC(=O)CNC(=O)[C@H](CCC(=O)O)NC(=O)C(C)(C)NC(=O)[C@@H](N)Cc1c[nH]cn1)[C@@H](C)O)[C@@H](C)O)C(C)C)C(=O)N[C@@H](C)C(=O)N[C@@H](Cc1c[nH]c2ccccc12)C(=O)N[C@@H](CC(C)C)C(=O)N[C@H](C(=O)N[C@@H](CCCCN)C(=O)NCC(=O)N[C@@H](CCCNC(=N)N)C(N)=O)C(C)C` [compound 24] (H-H[Aib]EGTFT[Aib]DV[Aib]SYLEGQAAKEFIAWLVKGR-NH2), the EC50 in test [1] (setting [4]) is at least 740 nM; in test [1] (setting [5]) it was at least 740 nM; in test [2] (setting [6]), at least 740 nM; in test [2] (setting [7]) it was at least 740 nM; in test [3] (setting [8]) it was 3300 pM; in test [3] (setting [9]), 7900 pM. Besides, in test [3] (setting [10]), the EC50 turned out to be 5600 pM.
With `CC[C@H](C)[C@H](NC(=O)[C@](C)(Cc1ccccc1)NC(=O)[C@H](CCC(=O)O)NC(=O)[C@](C)(CCCCN)NC(=O)[C@H](C)NC(=O)[C@H](C)NC(=O)[C@H](CCC(=O)O)NC(=O)CNC(=O)[C@H](CCC(=O)O)NC(=O)[C@H](CC(C)C)NC(=O)[C@](C)(Cc1ccccc1)NC(=O)[C@H](CO)NC(=O)[C@](C)(CO)NC(=O)[C@@H](NC(=O)[C@H](CC(=O)O)NC(=O)CNC(=O)[C@@H](NC(=O)[C@](C)(Cc1ccccc1)NC(=O)[C@H](CO)NC(=O)CNC(=O)[C@H](CCC(=O)O)NC(=O)C(C)(C)NC(=O)[C@@H](N)Cc1c[nH]cn1)[C@@H](C)O)C(C)C)C(=O)N[C@@H](C)C(=O)N[C@@](C)(Cc1ccccc1)C(=O)N[C@H](C(=O)N[C@H](C(=O)N[C@@](C)(CCCCN)C(=O)NCC(=O)NCC(N)=O)C(C)C)C(C)C` [compound 25] (H-H[Aib]EGS[αMeF]TGDV[αMeS]S[αMeF]LEGEAA[αMeK]E[αMeF]IA[αMeF]VV[αMeK]GG-NH2), the EC50 in test [1] (setting [4]) was at least 100 nM; in test [1] (setting [5]), 22 nM; in test [2] (setting [6]) it was at least 100 nM; in test [2] (setting [7]), at least 100 nM; in test [3] (setting [8]), 500 pM; in test [3] (setting [9]) it was 590 pM. Besides, the EC50 in test [3] (setting [10]) is 544 pM.
